From paper PMC11148078, “Potent activity of polymyxin B is associated with long-lived super-stoichiometric accumulation mediated by weak-affinity binding to lipid A” (Nature Communications, 2024)
Entries after “also recorded” stand apart in the source; their conditions may differ. Bridge positions count the residues as written; N and C are the ends. Square brackets hold non-standard residues; d marks the D form. Peptide text beside a SMILES is read from it. * marks the point of attachment. X1 = CC[C@H](C)CCCCC(=O)*; Dab = NCC[C@H](N)C(=O)O

Assays:
wt-OMVs = test: Single-cycle kinetic SPR binding to immobilized wt-OMVs; set-up: species or system E. coli; conditions: for SPR binding in presence of excess Mg^2+: 32 mM Mg^2+; for SPR binding profile: serial doubling injections, C1 chip
Description: Polymyxin B was covalently attached to a C1 chip (Series S Sensor Chip C1, Cytiva) using an amine coupling kit (Cytiva). Cartoon in Fig. 1A created with BioRender (biorender.com). Briefly, equal amounts of reagents N-hydroxysuccinimide and 1-ethyl-3-(3-dimethylaminopropyl) carbodiimide hydrochloride were mixed as per manufacturer’s instructions and immediately added to the gold chip surface for 2 min, washed with distilled deionized water, and dried. Sufficient polymyxin B (1 mM in 1 M HEPES buffer, pH 8) was added to cover the chip surface, incubated at room temperature for 1 h, washed as before, and then incubated with 1 M ethanolamine hydrochloride-NaOH, pH 8.5, for 1 min. The chip surface was washed with water, dried as previously described, immediately loaded into a Biacore S200, and primed with running buffer (described below) to equilibrate the system. C1 chips were used for multiple runs and discarded upon removal from the Biacore S200.
SCK C1-chip SPR experiments were performed in running buffer (Dulbecco’s phosphate-buffered salt solution 1x without calcium or magnesium (Fisher Scientific), pH 7.4, with 0.0005% tween-80 (Sigma) passed through a 0.2 µm filter) unless otherwise indicated. Inclusion of tween-80 prevented loss of polymyxin to the plastics[34] (also see Supplementary Information Methods). For experiments with brevicidine, which was suspended in DMSO, 0.125% DMSO was included in the running buffer. OMVs were diluted from frozen stocks to approximately 20–30 µg/ml protein in the OMV buffer. Capture of OMVs was performed at a low flow rate ([…]) for 300 s over the test channel(s) followed by a 300 s stabilization period. All subsequent steps were at a flow rate of […]. For single cycle kinetics, two-fold dilutions were injected over the channel(s) loaded with OMVs and a reference channel without OMVs for 30 s contact and 480 s dissociation. To regenerate chips, 0.5% SDS (desorb 1, Cytiva) was injected into all channels for 60 s at […] twice, with an extra buffer wash and four carry-over control steps to prevent residual SDS from disrupting the following cycle.
All single-cycle kinetic SPR traces shown were double-referenced (unless indicated) within the Biacore S200 Evaluation Software 1.0, exported as a.txt file, and imported (decimated) into GraphPad Prism (version 9.3.1 for Mac, GraphPad Software, San Diego, CA). For clarity, in some cases individual outlier data points (at buffer transitions) were removed when this would not change the overall data or conclusions.

resistant-OMVs = test: SPR steady-state affinity of reversible binding, resistant-OMVs; set-up: species or system E. coli; conditions: no pre-saturation; n=4 (polymyxin B), n=3 (PMBN), (SD); read-out: Apparent KD
Description: An apparent-KD was measured for the reversible saw-tooth binding profile where polymyxin B was titrated over an OMV surface pre-saturated with the stable binding component (Supplementary Information Fig. S11B). […] No pre-saturation was necessary when using resistant-OMVs or PMBN as these lack the stable component (Fig. 2B, D–F).
Binding and kinetic analysis of SPR-OMV assays
To determine the apparent- KD of the reversible binding event of polymyxin B, single-cycle kinetics were performed as described in Materials and Methods. After OMVs were loaded, 5 µM polymyxin B was injected for 360 sec ([…] flow rate) followed by 120 sec dissociations to saturate the stable-binding population prior to the sample injections. The base-to-peak value of each trace was determined from double-referenced traces (reference 1: - OMVs/ + compound channel; reference 2: + OMVs/ - compound) exported from the Biacore S200 evaluation software into PRISM 9 software. The change in RU with each pulse was plotted over the concentration and the KD determined by fitting a non-linear regression, one-site total function with background parameter set to 0 (GraphPad Prism version 9.3.1 for Mac, GraphPad Software, San Diego, California USA, www.graphpad.com). […]

Structure (SMILES)	SPR binding in presence of excess Mg^2+ (wt-OMVs)	effect of EDTA on SPR binding (wt-OMVs; EDTA 4 mM, maximum 625 nM, n=3)	SPR binding profile (wt-OMVs)	Kd (resistant-OMVs) [µM]
CC[C@H](C)CCCCC(=O)N[C@@H](CCN)C(=O)N[C@H](C(=O)N[C@@H](CCN)C(=O)N[C@H]1CCNC(=O)[C@H]([C@@H](C)O)NC(=O)[C@H](CCN)NC(=O)[C@H](CCN)NC(=O)[C@H](CC(C)C)NC(=O)[C@@H](Cc2ccccc2)NC(=O)[C@H](CCN)NC1=O)[C@@H](C)O [Polymyxin B] (X1-[Dab]T[Dab][Dab][Dab][dF]L[Dab][Dab]T; lactam 4-C (inferred); N-terminus assumed)	reduced to a weak transient saw-tooth profile without stably bound polymyxin B	had no effect on polymyxin binding	dominated by the accumulation of tightly bound polymyxin B and a superimposed saw-tooth profile associated with transient binding	0.273
CC(C)C[C@@H]1NC(=O)[C@@H](Cc2ccccc2)NC(=O)[C@H](CCN)NC(=O)[C@@H](NC(=O)[C@H](CCN)NC(=O)[C@@H](N)[C@@H](C)O)CCNC(=O)[C@H]([C@@H](C)O)NC(=O)[C@H](CCN)NC(=O)[C@H](CCN)NC1=O [PMBN] (H-T[Dab][Dab][Dab][dF]L[Dab][Dab]T; lactam 3-C)	eliminated	–	exhibited only weak, saw-tooth binding; also recorded: exclusively produces rapidly reversible binding	0.371
